Assay results: patent publication US5063247A, “Diphenylurea derivatives” (Mitsubishi Kasei Corporation, priority 1989, dated 1991)

Columns and labels:
[1] = tested on: cholesterol in serum; assay: Effect of reducing lipid level in blood: percent inhibition of cholesterol in serum of hamsters fed 1% cholesterol and 0.5% cholic acid diet; assay type: in vivo, Male golden Syrian hamsters; details: Mesocricetus auratus, po, 120 h, orally once a day for 5 days, relative to control group
Method: The effect of reducing a lipid level in blood by the action of the compounds according to the present invention was determined as follows:
Male golden Syrian hamsters weighing from 80 to 100 g were randomly divided into groups. The hamsters were first fed standard laboratory diets (solid feed MF-1 for mouse/rat/hamster, manufactured by Oriental Yeast Industries, KK) for 3 days. Then, they were fed the experimental diet containing 1% cholesterol and 0.5% cholic acid (manufactured by Oriental Yeast Industries, KK), ad libitum. At the same time, the compounds of the invention formulated in a shown dose (25 mg or 50 mg/10 ml water/kg) were administrated to the animals orally once a day at a determined time for 5 days. Water was administrated orally to the hamsters of control group in an amount of 10 ml per 1 kg of body weight. After five days of administrating the compounds, they were anesthetized with Pentobarbital Na (Nembutal injection, manufactured by Dainabbot) and three hours after the final administration of the test compound, a blood samples (2-3 ml) was taken from abdominal cava. The serum was separated by centrifuging.
The cholesterol level in the serum was determined by using a blood cholesterol measuring kit, Determina-TC5 manufactured by Kyowa Medix Co. The results are represented by percent inhibition (%) of cholesterol level in serum relative to that of the control group, and shown in the following Table 4, each compound number corresponding to that in the above Table 3.

[2] = tested on: cholesterol in serum; assay: as above; assay type: in vivo, Male golden Syrian hamsters; details: Mesocricetus auratus, po, 120 h, orally once a day for 5 days, relative to control group; remark: listed apart in the source
[3] = biological target: ACAT (acyl coenzyme cholesterol acyltransferase); assay: ACAT inhibitory action in hamster microsomes (cholesteryl-[14C] oleate formation); assay type: biochemical; details: radio-labelled oleoyl coenzyme A
Method: The ACAT inhibitory action of the compounds according to the present invention was measured as follows:
ACAT activity in the hamster microsomes was determined by measuring the rate of radio-active cholesteryl-[^14 C] oleate formation from cholesterol and radio-labelled oleoyl coenzyme A (^14 C) with or without test compound.
Calculations of IC50 value were made using data of the percent inhibition at each compound concentration. The results are shown in the following Table 5, each compound number corresponding to that in Table 3.

[4] = Acute toxicity test; details: rat, in vivo, po; P.O., suspended in 1% tragacanth solution, SD male and female rats, seven day observation
From the text: A compound according to the present invention suspended in a 1% tragacanth solution was administrated orally to SD male and female rats. Then, the number of fatal rats was counted during seven day observation. The LD50 value is shown in the following Table 6, the compound number corresponding to that in the above Table 3.

| IC50 [3] [µM] | SMILES | inhibition in vivo at 25 mg/kg [1] [%] | inhibition in vivo at 5 mg/kg [2] [%] | LD50 at 168 h [4] [mg/kg] |
| --- | --- | --- | --- | --- |
|  | CCCCCCCCc1ccc(NC(=O)Nc2c(Cl)cccc2Cl)cc1 [Compound No. 2, 1-(4-octylphenyl)-3-(2,6-dichlorophenyl)urea] | 49 |  |  |
| 0.01 | CCCCCCCCCc1ccc(NC(=O)Nc2c(C(C)C)cccc2C(C)C)cc1 [Compound No. 19, 1-(4-nonylphenyl)-3-(2,6-diisopropylphenyl)urea] | 64 |  |  |
|  | CC(C)c1cccc(C(C)C)c1NC(=O)Nc1ccc(C(C)(C)C)cc1 [Compound No. 26, reference compound] | 19 |  |  |
|  | CCCCCCCCc1ccc(NC(=O)Nc2c(Br)cccc2Br)cc1 [compound 4] | 55 |  |  |
|  | CCCCCCCCc1ccc(NC(=O)Nc2c(C)cccc2C)cc1 [compound 5] | 44 |  |  |
|  | CCCCCCCCc1ccc(NC(=O)Nc2c(CC)cccc2CC)cc1 [compound 7] | 48 |  |  |
|  | CCCCCCCCc1ccc(NC(=O)Nc2c(Cl)ccc(C)c2Cl)cc1 [compound 11] | 47 |  |  |
|  | CCCCCCCCc1ccc(NC(=O)Nc2c(OC)cccc2OC)cc1 [compound 12] | 54 |  |  |
|  | CCCCCCCCc1ccccc1NC(=O)Nc1c(C(C)C)cccc1C(C)C [compound 13] | 54 |  |  |
|  | CCCCCc1ccc(NC(=O)Nc2c(C(C)C)cccc2C(C)C)cc1 [compound 16] | 34 |  |  |
| 0.011 | CCCCCCc1ccc(NC(=O)Nc2c(C(C)C)cccc2C(C)C)cc1 [compound 17] | 60 |  |  |
| 0.006 | CCCCCCCc1ccc(NC(=O)Nc2c(C(C)C)cccc2C(C)C)cc1 [compound 18] | 49 |  |  |
| 0.012 | CCCCCCCCCCc1ccc(NC(=O)Nc2c(C(C)C)cccc2C(C)C)cc1 [compound 20] | 59 |  |  |

| SMILES | IC50 [3] [µM] | inhibition in vivo at 25 mg/kg [1] [%] | inhibition in vivo at 5 mg/kg [2] [%] | LD50 at 168 h [4] [mg/kg] |
| --- | --- | --- | --- | --- |
| CCCCCCCCc1ccc(NC(=O)Nc2c(C(C)C)cccc2C(C)C)cc1 [Compound No. 8] | 0.004 | 55 | 35 | > 2000 |
